Key:
IDH-C35 + Tozasertib = compound: Cc1ccccc1C(C(=O)NC1CCCCC1)N(C(=O)Cn1ccnc1C)c1cccc(F)c1 [IDH-C35] + Cc1cc(Nc2cc(N3CCN(C)CC3)nc(Sc3ccc(NC(=O)C4CC4)cc3)n2)n[nH]1 [Tozasertib] (partner 0.1 µM); assay: relative viability (nuclei count vs DMSO), 5 days (fraction); higher = more cells survive
How it was run: (§1)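 Each reported value is a median over duplicate plates. It expresses relative viability: treated-well nuclei count divided by vehicle-well nuclei count. Lung cancer cell lines in 1536-well plates were dosed by pin tool a day after seeding, alone with one drug or with a fixed anchor-drug dose plus five library-drug doses (not always all listed) in √10 steps, and nuclei were counted after 5 days.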

[1] = compound: CC1=C(C(=NN1)C)CC2=C(C3=C(S2)N(C(=O)N(C3=O)C)CC(C)C)C(=O)N4C[C@@H](CO4)O + COc1cc2c(Oc3ccc(NC(=O)C4(C(=O)Nc5ccc(F)cc5)CC4)cc3F)ccnc2cc1OCCCN1CCOCC1 [Foretinib] (partner 0.25 µM); assay: as above
How it was run: as §1

Cell Line	relative viability (IDH-C35 + Tozasertib; first compound 0.08 µM)	relative viability (IDH-C35 + Tozasertib; first compound 0.253 µM)	relative viability (IDH-C35 + Tozasertib; first compound 0.8 µM)	relative viability (IDH-C35 + Tozasertib; first compound 8 µM)	relative viability ([1]; first compound 0.0025 µM)	relative viability ([1]; first compound 0.007906 µM)	relative viability ([1]; first compound 0.025 µM)	relative viability ([1]; first compound 0.07906 µM)	relative viability ([1]; first compound 0.25 µM)	relative viability (IDH-C35 + Tozasertib; first compound 2.53 µM)
NCI-H650	0.669	0.765	0.768	0.698	1.07	0.937	0.938	0.977	1.08	–
NCI-H1666	0.585	0.752	0.619	0.536	0.93	0.995	0.897	0.94	1.03	0.58
NCI-H2085	0.793	0.845	0.751	0.718	0.965	0.803	0.957	0.796	0.827	0.793
NCI-H1734	0.28	0.27	0.246	0.249	0.811	0.976	0.896	0.9	0.916	0.247
NCI-H2126	0.81	0.812	0.865	0.884	1.28	0.958	1.03	1.29	0.947	0.824
EMC-BAC-2	0.304	0.298	0.314	0.283	1.04	1.09	1.07	1.08	1.04	0.28
NCI-H1993	0.545	0.614	0.551	0.536	0.767	0.719	0.827	0.711	0.749	0.579
NCI-H520	0.327	0.427	0.54	0.409	0.894	0.73	0.701	0.564	0.692	0.405
NCI-H647	0.29	0.244	0.21	0.284	1.23	1.27	1.13	1.19	1.2	0.261
SK-LU-1	0.359	0.347	0.364	0.341	0.659	0.556	0.527	0.492	0.548	0.341
ChaGo-K-1	0.22	0.231	0.221	0.203	0.886	0.979	0.888	0.914	0.968	0.258
NCI-H522	0.545	0.543	0.589	0.611	–	–	–	–	–	0.581
NCI-H1299	–	–	–	–	1.06	1.11	1.06	1.1	1.09	–
NCI-H1650	0.407	0.393	0.378	0.355	1.18	1.26	1.52	1.18	1.05	0.444
NCI-H2009	0.69	0.72	0.728	0.692	1.16	1.27	1.17	1.35	1.15	0.735
LOU-NH91	0.739	0.69	0.687	0.652	0.931	0.877	0.988	1.02	0.972	0.598
NCI-H2405	0.735	0.776	0.758	0.689	1.09	1.05	–	0.978	1.01	0.716

From the supplement of paper PMC10307832
